Reference: ChEMBL document CHEMBL4507268 (2021)

Tests used:
Conditions in all cases: Compound concentration 1.0 uM
[1] = target: Mitogen-activated protein kinase 1 (Homo sapiens) (UniProt P28482)
[2] = target: Casein kinase I isoform gamma-2 (Homo sapiens) (UniProt P78368)
[3] = target: Cyclin-dependent kinase 2/cyclin A (Homo sapiens) (UniProt P24941+P20248+P78396)
[4] = target: T1, Tyrosine-protein kinase ITK/TSK (Homo sapiens) (UniProt Q08881)
T1 sequence (whole entry): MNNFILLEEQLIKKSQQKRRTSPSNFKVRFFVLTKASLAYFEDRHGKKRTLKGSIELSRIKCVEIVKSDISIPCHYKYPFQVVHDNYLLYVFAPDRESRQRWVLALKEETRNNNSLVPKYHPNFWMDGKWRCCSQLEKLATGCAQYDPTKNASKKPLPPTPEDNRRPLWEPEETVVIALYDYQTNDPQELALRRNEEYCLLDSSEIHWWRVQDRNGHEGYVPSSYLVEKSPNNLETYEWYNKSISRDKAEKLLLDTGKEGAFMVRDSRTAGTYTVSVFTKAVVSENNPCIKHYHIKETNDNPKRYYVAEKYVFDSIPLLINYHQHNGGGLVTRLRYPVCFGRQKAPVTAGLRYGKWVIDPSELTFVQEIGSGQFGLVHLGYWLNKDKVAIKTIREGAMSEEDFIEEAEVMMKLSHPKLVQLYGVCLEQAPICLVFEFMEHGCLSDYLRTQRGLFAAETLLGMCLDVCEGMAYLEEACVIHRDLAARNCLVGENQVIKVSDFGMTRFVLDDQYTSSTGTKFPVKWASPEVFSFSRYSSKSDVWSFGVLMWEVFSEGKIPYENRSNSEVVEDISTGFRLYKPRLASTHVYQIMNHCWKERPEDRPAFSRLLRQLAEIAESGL

[5] = target: T2, Serine/threonine-protein kinase 3 (Homo sapiens) (UniProt Q13188)
T2 sequence (whole entry): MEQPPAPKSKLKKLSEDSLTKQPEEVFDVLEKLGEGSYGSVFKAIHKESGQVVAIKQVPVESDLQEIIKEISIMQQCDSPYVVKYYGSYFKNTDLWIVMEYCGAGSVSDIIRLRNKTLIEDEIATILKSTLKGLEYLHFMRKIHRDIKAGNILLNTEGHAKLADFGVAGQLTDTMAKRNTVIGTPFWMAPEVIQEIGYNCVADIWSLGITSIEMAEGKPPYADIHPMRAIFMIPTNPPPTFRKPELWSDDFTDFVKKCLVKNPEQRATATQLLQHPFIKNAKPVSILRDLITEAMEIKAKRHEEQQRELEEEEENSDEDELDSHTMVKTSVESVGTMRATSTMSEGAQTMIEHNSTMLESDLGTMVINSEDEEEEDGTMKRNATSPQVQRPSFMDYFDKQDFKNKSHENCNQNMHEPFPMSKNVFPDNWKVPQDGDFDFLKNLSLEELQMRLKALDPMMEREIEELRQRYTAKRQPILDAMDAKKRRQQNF

[6] = target: Tyrosine-protein kinase HCK (Homo sapiens) (UniProt P08631)
Tyrosine-protein kinase HCK (Homo sapiens), sequence (P08631 2-526 limits assumed): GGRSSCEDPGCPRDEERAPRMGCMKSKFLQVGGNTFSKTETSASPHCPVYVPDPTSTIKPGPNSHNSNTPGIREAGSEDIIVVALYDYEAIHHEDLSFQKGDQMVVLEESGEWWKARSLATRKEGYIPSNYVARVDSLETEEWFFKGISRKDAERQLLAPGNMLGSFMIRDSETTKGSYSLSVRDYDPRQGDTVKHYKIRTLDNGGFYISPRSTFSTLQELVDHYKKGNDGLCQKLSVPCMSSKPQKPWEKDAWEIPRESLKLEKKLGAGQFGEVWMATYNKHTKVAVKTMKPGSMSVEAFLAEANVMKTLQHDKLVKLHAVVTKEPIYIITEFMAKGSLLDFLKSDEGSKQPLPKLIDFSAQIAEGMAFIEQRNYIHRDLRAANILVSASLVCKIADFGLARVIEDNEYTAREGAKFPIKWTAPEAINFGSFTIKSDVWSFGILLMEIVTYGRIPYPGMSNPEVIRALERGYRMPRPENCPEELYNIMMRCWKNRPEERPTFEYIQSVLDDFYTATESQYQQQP

[7] = target: Calcium/calmodulin-dependent protein kinase type 1 (Homo sapiens) (UniProt Q14012)
Calcium/calmodulin-dependent protein kinase type 1 (Homo sapiens), sequence (Q14012 whole entry, looked up): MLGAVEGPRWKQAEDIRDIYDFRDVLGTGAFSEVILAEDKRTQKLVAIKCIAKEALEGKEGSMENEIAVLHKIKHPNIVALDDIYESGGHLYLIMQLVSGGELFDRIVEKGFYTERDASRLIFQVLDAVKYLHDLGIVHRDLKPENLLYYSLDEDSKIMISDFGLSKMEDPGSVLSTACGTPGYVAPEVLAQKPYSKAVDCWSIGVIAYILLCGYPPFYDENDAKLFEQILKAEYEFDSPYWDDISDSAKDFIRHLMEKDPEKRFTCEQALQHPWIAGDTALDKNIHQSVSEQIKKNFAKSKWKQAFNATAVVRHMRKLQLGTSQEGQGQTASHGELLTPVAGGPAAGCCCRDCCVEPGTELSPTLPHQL

[8] = target: RAC-beta serine/threonine-protein kinase (Homo sapiens) (UniProt P31751)
RAC-beta serine/threonine-protein kinase (Homo sapiens), sequence (P31751 whole entry): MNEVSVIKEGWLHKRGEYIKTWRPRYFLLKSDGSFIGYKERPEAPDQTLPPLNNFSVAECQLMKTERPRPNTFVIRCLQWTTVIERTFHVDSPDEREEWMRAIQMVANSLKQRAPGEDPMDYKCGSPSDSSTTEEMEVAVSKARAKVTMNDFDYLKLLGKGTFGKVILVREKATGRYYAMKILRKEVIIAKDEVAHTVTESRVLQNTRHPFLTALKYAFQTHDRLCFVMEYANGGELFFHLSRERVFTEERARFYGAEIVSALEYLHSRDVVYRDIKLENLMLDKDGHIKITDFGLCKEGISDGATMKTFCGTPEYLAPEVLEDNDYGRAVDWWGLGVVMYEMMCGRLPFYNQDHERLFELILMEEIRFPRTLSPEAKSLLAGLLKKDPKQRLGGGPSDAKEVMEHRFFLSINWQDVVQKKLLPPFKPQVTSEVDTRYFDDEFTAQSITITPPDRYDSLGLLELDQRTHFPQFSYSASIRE

[9] = target: Dual specificity mitogen-activated protein kinase kinase 2 (Homo sapiens) (UniProt P36507)
[10] = target: Serine/threonine-protein kinase 38-like (Homo sapiens) (UniProt Q9Y2H1)
Serine/threonine-protein kinase 38-like (Homo sapiens), sequence (Q9Y2H1 2-464 limits assumed): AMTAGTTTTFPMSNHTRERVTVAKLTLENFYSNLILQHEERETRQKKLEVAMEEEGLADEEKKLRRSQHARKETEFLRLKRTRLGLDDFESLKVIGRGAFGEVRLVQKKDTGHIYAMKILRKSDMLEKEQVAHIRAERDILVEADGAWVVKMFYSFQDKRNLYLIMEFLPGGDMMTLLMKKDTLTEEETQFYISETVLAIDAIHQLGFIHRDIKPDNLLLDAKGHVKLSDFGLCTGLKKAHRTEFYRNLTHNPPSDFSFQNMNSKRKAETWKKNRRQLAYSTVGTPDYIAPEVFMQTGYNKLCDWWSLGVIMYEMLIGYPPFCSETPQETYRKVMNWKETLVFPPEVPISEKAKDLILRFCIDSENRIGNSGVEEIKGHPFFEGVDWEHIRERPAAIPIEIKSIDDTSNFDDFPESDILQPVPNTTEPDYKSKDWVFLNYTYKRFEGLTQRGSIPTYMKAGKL

[11] = target: Serine/threonine-protein kinase PAK 6 (Homo sapiens) (UniProt Q9NQU5)
Serine/threonine-protein kinase PAK 6 (Homo sapiens), sequence (Q9NQU5 whole entry, looked up): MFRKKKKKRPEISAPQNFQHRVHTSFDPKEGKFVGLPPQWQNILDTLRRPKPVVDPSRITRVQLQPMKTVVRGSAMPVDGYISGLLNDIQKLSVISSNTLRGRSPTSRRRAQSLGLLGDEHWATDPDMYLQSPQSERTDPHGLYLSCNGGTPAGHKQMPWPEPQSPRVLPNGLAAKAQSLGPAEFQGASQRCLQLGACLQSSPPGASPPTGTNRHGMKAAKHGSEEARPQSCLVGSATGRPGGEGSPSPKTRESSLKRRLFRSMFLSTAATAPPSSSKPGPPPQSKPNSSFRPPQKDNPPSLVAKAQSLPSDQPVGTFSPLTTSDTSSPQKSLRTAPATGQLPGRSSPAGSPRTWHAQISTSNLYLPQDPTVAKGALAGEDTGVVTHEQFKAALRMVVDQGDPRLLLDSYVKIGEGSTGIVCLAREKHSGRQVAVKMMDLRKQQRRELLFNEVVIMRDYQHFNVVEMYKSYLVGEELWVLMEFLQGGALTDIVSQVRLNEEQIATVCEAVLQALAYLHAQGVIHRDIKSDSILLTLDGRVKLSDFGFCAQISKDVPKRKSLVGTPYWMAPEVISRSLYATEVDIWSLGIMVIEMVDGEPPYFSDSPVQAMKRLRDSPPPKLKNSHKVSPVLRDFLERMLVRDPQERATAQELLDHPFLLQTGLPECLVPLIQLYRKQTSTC

[12] = target: T3, Receptor-interacting serine/threonine-protein kinase 1 (Homo sapiens) (UniProt Q13546)
T3 sequence (whole entry): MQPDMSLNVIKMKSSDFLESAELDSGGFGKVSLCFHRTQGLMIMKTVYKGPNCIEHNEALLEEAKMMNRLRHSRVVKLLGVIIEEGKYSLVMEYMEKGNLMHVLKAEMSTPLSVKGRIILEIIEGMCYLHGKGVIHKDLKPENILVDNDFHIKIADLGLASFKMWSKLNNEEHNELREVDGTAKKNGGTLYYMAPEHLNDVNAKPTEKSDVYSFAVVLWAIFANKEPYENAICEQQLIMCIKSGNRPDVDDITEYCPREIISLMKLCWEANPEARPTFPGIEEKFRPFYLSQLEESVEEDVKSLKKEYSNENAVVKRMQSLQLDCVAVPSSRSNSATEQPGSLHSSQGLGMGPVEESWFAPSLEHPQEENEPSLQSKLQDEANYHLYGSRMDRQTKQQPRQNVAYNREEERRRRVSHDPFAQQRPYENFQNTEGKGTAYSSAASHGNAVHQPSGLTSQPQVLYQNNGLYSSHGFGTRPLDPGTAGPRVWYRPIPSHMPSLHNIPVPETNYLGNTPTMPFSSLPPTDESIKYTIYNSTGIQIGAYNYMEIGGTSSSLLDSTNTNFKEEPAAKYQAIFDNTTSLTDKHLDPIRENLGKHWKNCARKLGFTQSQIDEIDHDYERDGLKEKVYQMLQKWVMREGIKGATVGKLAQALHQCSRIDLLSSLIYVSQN

[13] = target: Serine/threonine-protein kinase PAK 5 (Homo sapiens) (UniProt Q9P286)
Serine/threonine-protein kinase PAK 5 (Homo sapiens), sequence (Q9P286 whole entry, looked up): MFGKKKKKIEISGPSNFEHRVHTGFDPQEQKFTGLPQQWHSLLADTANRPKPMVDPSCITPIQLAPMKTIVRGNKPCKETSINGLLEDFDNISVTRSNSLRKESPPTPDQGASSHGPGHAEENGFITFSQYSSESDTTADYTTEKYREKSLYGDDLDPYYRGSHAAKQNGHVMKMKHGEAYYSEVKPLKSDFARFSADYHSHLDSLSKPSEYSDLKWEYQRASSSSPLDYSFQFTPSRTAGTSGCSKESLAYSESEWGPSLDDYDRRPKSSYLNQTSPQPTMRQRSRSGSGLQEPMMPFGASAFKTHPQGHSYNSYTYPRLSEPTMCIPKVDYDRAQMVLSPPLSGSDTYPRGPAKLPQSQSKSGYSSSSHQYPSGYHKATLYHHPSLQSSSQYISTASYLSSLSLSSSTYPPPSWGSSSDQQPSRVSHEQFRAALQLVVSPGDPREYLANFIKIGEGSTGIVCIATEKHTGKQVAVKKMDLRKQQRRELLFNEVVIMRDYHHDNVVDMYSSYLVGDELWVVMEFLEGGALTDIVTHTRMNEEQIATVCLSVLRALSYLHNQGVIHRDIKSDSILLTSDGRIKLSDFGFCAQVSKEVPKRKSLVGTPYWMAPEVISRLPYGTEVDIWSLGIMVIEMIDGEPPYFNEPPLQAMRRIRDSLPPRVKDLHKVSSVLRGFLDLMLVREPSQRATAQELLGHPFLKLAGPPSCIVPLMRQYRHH

[14] = target: Mitogen-activated protein kinase 11 (Homo sapiens) (UniProt Q15759)
[15] = target: Death-associated protein kinase 1 (Homo sapiens) (UniProt P53355)
[16] = target: Vascular endothelial growth factor receptor 1 (Homo sapiens) (UniProt P17948)
[17] = target: Serine/threonine-protein kinase PLK1 (Homo sapiens) (UniProt P53350)
Serine/threonine-protein kinase PLK1 (Homo sapiens), sequence (P53350 whole entry): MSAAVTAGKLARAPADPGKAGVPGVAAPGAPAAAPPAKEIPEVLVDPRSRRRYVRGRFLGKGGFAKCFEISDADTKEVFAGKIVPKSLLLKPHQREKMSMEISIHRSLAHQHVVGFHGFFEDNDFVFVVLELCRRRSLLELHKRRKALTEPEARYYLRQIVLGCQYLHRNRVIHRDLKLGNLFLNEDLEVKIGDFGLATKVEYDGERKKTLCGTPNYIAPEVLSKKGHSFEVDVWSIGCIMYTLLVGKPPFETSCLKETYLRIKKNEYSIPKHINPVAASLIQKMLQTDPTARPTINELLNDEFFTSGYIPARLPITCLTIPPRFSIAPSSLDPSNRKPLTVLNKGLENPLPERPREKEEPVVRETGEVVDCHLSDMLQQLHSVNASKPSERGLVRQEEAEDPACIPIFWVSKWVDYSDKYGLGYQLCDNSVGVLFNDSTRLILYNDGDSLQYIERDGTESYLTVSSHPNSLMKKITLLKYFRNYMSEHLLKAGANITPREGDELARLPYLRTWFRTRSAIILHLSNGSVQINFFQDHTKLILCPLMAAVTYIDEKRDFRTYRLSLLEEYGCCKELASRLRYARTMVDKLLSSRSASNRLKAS

[18] = target: Ephrin type-A receptor 2 (Homo sapiens) (UniProt P29317)
Ephrin type-A receptor 2 (Homo sapiens), sequence (P29317 whole entry): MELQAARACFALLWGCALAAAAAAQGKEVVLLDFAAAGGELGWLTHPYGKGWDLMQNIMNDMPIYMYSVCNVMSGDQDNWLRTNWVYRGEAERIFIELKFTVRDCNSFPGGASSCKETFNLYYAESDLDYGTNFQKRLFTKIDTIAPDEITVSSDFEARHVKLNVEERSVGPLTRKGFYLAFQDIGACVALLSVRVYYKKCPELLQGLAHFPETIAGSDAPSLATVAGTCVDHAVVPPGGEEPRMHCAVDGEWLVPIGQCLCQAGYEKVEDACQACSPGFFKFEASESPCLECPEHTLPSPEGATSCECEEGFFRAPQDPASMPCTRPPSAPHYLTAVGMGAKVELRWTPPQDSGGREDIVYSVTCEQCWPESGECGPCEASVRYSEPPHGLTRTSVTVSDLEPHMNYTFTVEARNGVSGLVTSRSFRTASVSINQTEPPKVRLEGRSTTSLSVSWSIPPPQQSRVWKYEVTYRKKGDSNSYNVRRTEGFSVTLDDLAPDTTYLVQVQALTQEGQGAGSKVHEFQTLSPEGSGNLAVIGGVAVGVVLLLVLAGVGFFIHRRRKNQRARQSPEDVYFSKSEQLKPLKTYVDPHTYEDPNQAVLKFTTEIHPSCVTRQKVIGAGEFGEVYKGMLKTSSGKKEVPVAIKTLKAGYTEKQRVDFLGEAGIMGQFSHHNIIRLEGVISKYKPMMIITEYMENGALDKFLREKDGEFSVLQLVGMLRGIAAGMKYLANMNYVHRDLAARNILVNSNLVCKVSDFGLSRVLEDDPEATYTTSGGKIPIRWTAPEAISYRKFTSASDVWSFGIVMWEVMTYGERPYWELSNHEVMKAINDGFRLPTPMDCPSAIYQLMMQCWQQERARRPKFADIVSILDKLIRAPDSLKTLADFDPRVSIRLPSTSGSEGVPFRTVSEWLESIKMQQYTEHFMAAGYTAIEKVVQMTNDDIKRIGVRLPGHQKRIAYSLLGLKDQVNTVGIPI

Measured: % residual kinase activity

CN1CCN(c2cnc3c(C4CCN(C(=O)c5ccc(OC(F)(F)F)cc5N)CC4)ncnc3c2)CC1 [BAY-885]
inactive: [1] 107% | [2] 91% | [3] 105% | [4] 105% | [5] 128% | [6] 107% | [7] 109% | [8] 109% | [9] 103% | [10] 100% | [11] 103% | [12] 100% | [13] 115% | [14] 103% | [15] 109% | [16] 108% | [17] 115% | [18] 100%
